Test results: patent US9120749B2, “Quinoline derivatives and MELK inhibitors containing the same” (ONCOTHERAPY SCIENCE, INC., priority 2010, dated 2015)
pIC50: −log10 of the molar value. Where a name gives a salt, the structure may show the parent alone. Read-outs that look alike come from different tables or passages of the source.

Assays:
MELK = MELK (Homo sapiens, UniProt Q14680); experiment: Kinase assay: MELK activity, phosphorylation of FITC-labeled histone H3 peptide measured by IMAP fluorescence polarization; format: biochemical; settings: for IC50: read-out: IC50 (μM) (kinase assay)
Summary of the method: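 Polarization of fluorescence served as the signal for MELK turnover of FITC-conjugated histone H3 peptide. Binding solution quenched each reaction, and plates stood 0.5 hour at room temperature before reading.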

22Rv1 cells = experiment: Cell-based assay: anti-proliferative activity, Cell Counting Kit-8, 72 hours (22Rv1)
DU4475 cells = experiment: Cell-based assay: anti-proliferative activity, Cell Counting Kit-8, 72 hours (DU4475)
T47D cells = experiment: Cell-based assay: anti-proliferative activity, Cell Counting Kit-8, 72 hours (T47D)
Summary of the method: (§1)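 Target-specific cytotoxicity: seeded cells treated with MELK inhibitor candidates for 72 h, proliferation quantified via CCK-8, IC50 fitted.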

A549 cells = experiment: Cell-based assay: anti-proliferative activity, Cell Counting Kit-8, 72 hours (A549); settings: 72 hours
Summary of the method: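 Cell Counting Kit-8 read-out of A549 growth after 72 hours of inhibitor exposure, cells plated in 96-well format. Values reported as IC50.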

HT-1197 cells = experiment: Cell-based assay: anti-proliferative activity, Cell Counting Kit-8, 72 hours (HT-1197, negative control without MELK expression); settings: HT1197 cells (negative control, no MELK expression), 72 hours
Summary of the method: as §1

[1] = MELK kinase assay, IMAP fluorescence polarization, 50 micro-M ATP

MELK, sequence (Q14680 whole entry, looked up): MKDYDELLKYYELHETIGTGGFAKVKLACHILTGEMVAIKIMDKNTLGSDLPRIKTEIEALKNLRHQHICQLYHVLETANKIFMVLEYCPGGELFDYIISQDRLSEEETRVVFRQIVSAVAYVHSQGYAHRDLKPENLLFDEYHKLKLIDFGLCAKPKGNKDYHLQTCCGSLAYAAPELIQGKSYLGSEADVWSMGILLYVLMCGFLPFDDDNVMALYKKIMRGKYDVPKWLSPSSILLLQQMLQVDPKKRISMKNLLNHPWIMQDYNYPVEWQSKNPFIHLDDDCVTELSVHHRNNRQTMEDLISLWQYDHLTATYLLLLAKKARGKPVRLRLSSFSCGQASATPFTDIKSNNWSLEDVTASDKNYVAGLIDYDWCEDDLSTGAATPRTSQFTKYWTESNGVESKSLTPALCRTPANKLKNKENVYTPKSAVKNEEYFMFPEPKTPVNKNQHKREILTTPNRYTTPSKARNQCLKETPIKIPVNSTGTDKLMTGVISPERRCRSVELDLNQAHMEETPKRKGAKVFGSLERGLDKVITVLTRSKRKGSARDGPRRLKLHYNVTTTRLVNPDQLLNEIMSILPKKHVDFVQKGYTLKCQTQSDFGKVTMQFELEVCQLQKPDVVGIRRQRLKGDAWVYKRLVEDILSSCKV

SMILES | IC50 (MELK; [1]) [µM] | IC50 (22Rv1 cells; Homo sapiens, 22Rv1, 72 h) [µM] | IC50 (DU4475 cells; Homo sapiens, DU-4475, 72 h) [µM] | IC50 (T47D cells; Homo sapiens, T47D, 72 h) [µM] | IC50 (A549 cells; Homo sapiens, A549, 72 h) [µM] | IC50 (HT-1197 cells; Homo sapiens, HT1197, 72 h) [µM] | IC50 (MELK) [µM] | IC50 (MELK; hydrochloride) [µM] | IC50 (22Rv1 cells; hydrochloride) [µM] | IC50 (DU4475 cells; hydrochloride) [µM] | IC50 (T47D cells; 72 hours, hydrochloride) [µM] | IC50 (A549 cells; hydrochloride) [µM] | IC50 (HT-1197 cells; hydrochloride) [µM] | pIC50 (MELK) | IC50 (MELK; MELK kinase assay, IMAP fluorescence polarization, 50 micro-M ATP, hydrochloride) [µM]
CC(=O)c1cnc2ccc(-c3cc(F)c(O)c(Cl)c3)cc2c1NC1CCN(CCN(C)C)CC1 [Example 821, 1-(6-(3-chloro-5-fluoro-4-hydroxyphenyl)-4-(1-(2-(dimethylamino)ethyl)piperidin-4-ylamino)quinolin-3-yl)ethanone] | 0.0053 | 0.25 | 0.17 | 0.23 | 0.59 | 3.3 |  |  |  |  |  |  |  |  | 
CNC1CCCN(c2ccc(Nc3c(C(=O)C4CC4)cnc4ccc(-c5cc(Cl)c(O)c(Cl)c5)cc34)cn2)C1 (stereo not drawn) [Example 807, cyclopropyl(6-(3,5-dichloro-4-hydroxyphenyl)-4-((6-(3-(methylamino)piperidin-1-yl)pyridin-3-ylamino)quinolin-3-yl)methanone trihydrochloride] |  | 0.055 | 0.032 | 0.058 | 0.056 | 1.1 | 0.0015 |  |  |  |  |  |  |  | 
CCC(=O)c1cnc2ccc(-c3cc(F)c(O)c(Cl)c3)cc2c1N[C@H]1CC[C@H](CN2CCCC2)CC1 [Example 846] | 0.0023 | 0.16 | 0.071 | 0.096 | 0.13 | 0.71 |  |  |  |  |  |  |  |  | 
CC(=O)c1cnc2ccc(-c3cc(Cl)c(O)c(Cl)c3)cc2c1N[C@H]1CCC[C@@H](CN(C)C)C1 [Example 827, 1-(6-(3,5-dichloro-4-hydroxyphenyl)-4-((1S,3R)-3-((dimethylamino)methyl)cyclohexylamino)quinolin-3-yl)ethanone hydrochloride] | 0.0033 | 0.43 | 0.2 | 0.49 | 0.51 | 5.9 |  |  |  |  |  |  |  |  | 
CC(=O)c1cnc2ccc(-c3cc(F)c(O)c(Cl)c3)cc2c1Nc1ccc(N2CCC(N(C)C)C2)nc1 (stereo not drawn) [Example 853, 1-(6-(3-chloro-5-fluoro-4-hydroxyphenyl)-4-((6-(3-(dimethylamino)pyrrolidin-1-yl)pyridin-3-yl)amino)quinolin-3-yl)ethanone] | 0.018 | 0.65 | 0.38 | 0.2 | 0.45 | 10 |  |  |  |  |  |  |  |  | 
CN1CCN(c2ccc(Nc3c(C(=O)C4CC4)cnc4ccc(-c5cc(F)c(O)c(F)c5)cc34)cn2)CC1 [Example 778, cyclopropyl(6-(3,5-difluoro-4-hydroxyphenyl)-4-(6-(4-methylpiperazin-1-yl)pyridin-3-ylamino)quinolin-3-yl)methanone] |  | 0.48 | 0.22 | 0.1 | 0.17 | 2.6 | 0.021 |  |  |  |  |  |  |  | 
CCC(=O)c1cnc2ccc(-c3cc(Cl)c(O)c(Cl)c3)cc2c1Nc1ccc(CN(C)C)cc1 [Example 771, 1-(6-(3,5-dichloro-4-hydroxyphenyl)-4-((4-((dimethylamino)methyl)phenyl)amino)quinolin-3-yl)propan-1-one] |  | 0.16 | 0.045 | 0.072 | 0.095 | 0.72 | 0.0054 |  |  |  |  |  |  |  | 
CN1CCN(CCc2cccc(Nc3c(C(=O)C4CC4)cnc4ccc(-c5cc(Cl)c(O)c(Cl)c5)cc34)c2)CC1 [Example 829, cyclopropyl(6-(3,5-dichloro-4-hydroxyphenyl)-4-(3-(2-(4-methylpiperazin-1-yl)ethyl)phenylamino)quinolin-3-yl)methanone] | 0.0051 | 0.23 | 0.057 | 0.7 | 0.087 | 5.7 |  |  |  |  |  |  |  |  | 
CC(=O)c1cnc2ccc(-c3cc(F)c(O)c(Cl)c3)cc2c1N[C@H]1CC[C@H](CN2CCC[C@H]2CO)CC1 [Example 844, 1-(6-(3-chloro-5-fluoro-4-hydroxyphenyl)-4-((1S,4r)-4-(((S)-2-(hydroxymethyl)pyrrolidin-1-yl)methyl)cyclohexylamino)quinolin-3-yl)ethanone] | 0.0046 | 0.18 | 0.092 | 0.067 | 0.18 | 3.3 |  |  |  |  |  |  |  |  | 
CC(=O)c1cnc2ccc(-c3cc(Cl)c(O)c(Cl)c3)cc2c1N[C@H]1CC[C@H](CN2CCCC2)CC1 [Example 768, 1-(6-(3,5-dichloro-4-hydroxyphenyl)-4-(trans-4-(pyrrolidin-1-ylmethyl)cyclohexylamino)quinolin-3-yl)ethanone hydrochloride] |  |  |  |  |  |  |  | 0.0015 | 0.11 | 0.07 | 0.11 | 0.13 | 28 |  | 
CC(=O)c1cnc2ccc(-c3cc(F)c(O)c(Cl)c3)cc2c1Nc1cnn(C2CCN(C)C2)c1 (stereo not drawn) [Example 813, 1-(6-(3-chloro-5-fluoro-4-hydroxyphenyl)-4-((1-(1-methylpyrrolidin-3-yl)-1H-pyrazol-4-yl)amino)quinolin-3-yl)ethanone dihydrochloride] | 0.0021 | 0.11 | 0.054 | 0.07 | 0.25 | 0.75 |  |  |  |  |  |  |  |  | 
CCN(CC)C[C@H]1CC[C@H](Nc2c(C(C)=O)cnc3ccc(-c4cc(Cl)c(O)c(OC)c4)cc23)CC1 [Example 791, 1-(6-(3-chloro-4-hydroxy-5-methoxyphenyl)-4-(1R,4R)-4-((diethylamino)methyl)cyclohexylamino)quinolin-3-yl)ethanone hydrochloride] |  | 0.49 | 0.43 | 0.58 | 0.27 | 9.3 | 0.0031 |  |  |  |  |  |  |  | 
CNC1CCCN(c2ccc(Nc3c(C(C)=O)cnc4ccc(-c5cc(Cl)c(O)c(Cl)c5)cc34)cn2)C1 (stereo not drawn) [Example 806, 1-(6-(3,5-dichloro-4-hydroxyphenyl)-4-((6-(3-(methylamino)piperidin-1-yl)pyridin-3-yl)amino)quinolin-3-yl)ethanone trihydrochloride] |  | 0.039 | 0.032 | 0.027 | 0.054 | 0.33 |  |  |  |  |  |  |  | 8.92 | 
CCC(=O)c1cnc2ccc(-c3cc(Cl)c(O)c(Cl)c3)cc2c1N[C@H]1CC[C@H](CN2CCCC2)CC1 [Example 843] | 0.0016 | 0.19 | 0.057 | 0.15 | 0.15 | 4.2 |  |  |  |  |  |  |  |  | 
CC(=O)c1cnc2ccc(-c3cc(Cl)c(O)c(Cl)c3)cc2c1Nc1ccc(N2CCC(N(C)C)C2)nc1 (stereo not drawn) [Example 855, 1-(6-(3,5-dichloro-4-hydroxyphenyl)-4-((6-(3-(dimethylamino)pyrrolidin-1-yl)pyridin-3-yl)amino)quinolin-3-yl)ethanone hydrochloride] |  |  |  |  |  |  |  |  | 0.64 | 0.23 | 0.26 | 0.38 | 73 |  | 0.0021
COc1cc(-c2ccc3ncc(C(C)=O)c(Nc4ccc(N5CCC(N)C5)nc4)c3c2)cc(Cl)c1O (stereo not drawn) [Example 774, 1-(4-(6-(3-aminopyrrolidin-1-yl)pyridin-3-ylamino)-6-(3-chloro-4-hydroxy-5-methoxyphenyl)quinolin-3-yl)ethanone] |  | 0.082 | 0.056 | 0.034 | 0.045 | 0.71 | 0.0019 |  |  |  |  |  |  |  | 
CC(=O)c1cnc2ccc(-c3cc(Cl)c(O)c(Cl)c3)cc2c1N[C@H]1CCC[C@H](CCN(C)C)C1 [Example 861, 1-(6-(3,5-dichloro-4-hydroxyphenyl)-4-(((1S,3R)-3-(2-(dimethylamino)ethyl)cyclohexyl)amino)quinolin-3-yl)ethanone hydrochloride] | 0.0032 | 0.24 | 0.19 | 0.22 | 0.25 | 1 |  |  |  |  |  |  |  |  | 
